Reference: patent US12383556B2, “Methods of treating Sjögren's syndrome using a Bruton's tyrosine kinase inhibitor” (NOVARTIS AG, priority 2019, dated 2025)
Read-outs that look alike come from different tables or passages of the source.

Experiment: First-in-human Part 2 multiple ascending dose q.d. blood and urine PK
Type: in vivo
Details: for Amount recovered / Amount recovered (%): Day 12, urine; for drug accumulation ratio (Racc): day 12 vs day 1, q.d.; for CL renal: blood and urine, Day 12, read-out: Renal clearance
From the text: First-in-human study in up to approximately 168 healthy volunteers (HVs), of which 64 (in Parts 2 & 4) had asymptomatic atopic diathesis. • Part 1 was a double-blind (subject and investigator blind, sponsor unblinded), placebo-controlled single ascending dose (SAD) escalation study of 10 cohorts (N=80) • Part 2 was a double-blind (subject and investigator blind, sponsor unblinded), placebo-controlled multiple ascending dose (MAD) (13 doses over 12 days) escalation study employing once daily dosing in 6 cohorts in healthy volunteers with asymptomatic atopic diathesis (N=48) • Part 3 was a single dose open-label crossover food effect study in 12 HVs • Part 4 was a double-blind (subject and investigator blind, sponsor unblinded), placebo-controlled multiple dose (25 doses over 12 days) study employing twice daily dosing in 2 cohorts of healthy volunteers with asymptomatic atopic diathesis (N=16)
In Parts 2 and 4, subjects were admitted on Day −2 or −1 for baseline safety assessments and to confirm eligibility. Eligible subjects received the first dose of compound (I) under fasting conditions on Day 1, and continued to take study medication under fasting conditions up to and including Day 12. Subjects were domiciled from Day −2 or −1 until the morning of Day 16, which equals 96 hours after the last dose of compound (I) was received. In Parts 2 and 4, the study medication was given once daily and twice daily respectively (details are found in the schedule of assessments).
Subjects were assigned to one of the following 6 cohorts. In each cohort, 8 subjects were randomized to either compound (I) or matching placebo in a 6:2 ratio. • Cohort 1: multiple oral doses of 10 mg compound (I) or matching placebo • Cohort 2: multiple oral doses of 25 mg compound (I) or matching placebo • Cohort 3: multiple oral doses of 50 mg compound (I) or matching placebo • Cohort 4: multiple oral doses of 100 mg compound (I) or matching placebo • Cohort 5: multiple oral doses of 400 mg compound (I) or matching placebo • Cohort 6: multiple oral doses of up to 600 mg compound (I) or matching placebo
Pharmacokinetic samples were obtained in blood and evaluated in all subjects at all dose levels. The samples from placebo subjects were not analyzed. The samples for PK assessments from subjects were collected at time points defined in the study. Compound (I) concentrations were determined in blood by a validated LC-MS/MS method.

[1] = 10 mg qd, Day 12, blood, Mean ± SD
[2] = 25 mg qd, Day 12, blood, Mean ± SD
[3] = 50 mg qd, Day 12, blood, Mean ± SD
[4] = 50 mg qd, Day 12, blood, Median (Min-Max)
[5] = 100 mg qd, Day 1, blood, Mean ± SD
[6] = 100 mg qd, Day 1, blood, Median (Min-Max)
[7] = 100 mg qd, Day 12, blood, Mean ± SD
[8] = 400 mg qd, Day 1, blood, Mean ± SD
[9] = 400 mg qd, Day 12, blood, Mean ± SD
[10] = 600 mg qd, Day 1, blood, Mean ± SD
[11] = 600 mg qd, Day 12, blood, Mean ± SD

Cmax (10 mg qd, Day 1, blood, Mean ± SD): 8.40 ± 2.02 ng/mL | CLss/F [1]: 425 ± 64.8 L/h | Cmax [1]: 18.2 ± 5.90 ng/mL | CLss/F (10 mg qd, Day 12, blood, Median (Min-Max)): 423 (341-529) L/h | Amount recovered (10 mg qd, Mean ± SD): 0.0663 ± 0.0309 mg | Amount recovered (%) (10 mg qd, Mean ± SD): 0.663 ± 0.309% | Amount recovered (10 mg qd, Median (Min-Max)): 0.0630 mg | Cmax (25 mg qd, Day 1, blood, Mean ± SD): 40.9 ± 21.6 ng/mL | CLss/F [2]: 307 ± 253 L/h | Cmax [2]: 85.9 ± 31.5 ng/mL | CLss/F (25 mg qd, Day 12, blood, Median (Min-Max)): 248 (129-809) L/h | Amount recovered (25 mg qd, Mean ± SD): 0.114 ± 0.0706 mg | Amount recovered (%) (25 mg qd, Mean ± SD): 0.456 ± 0.283% | Cmax (50 mg qd, Day 1, blood, Mean ± SD): 76.5 ± 22.0 ng/mL | CLss/F [3]: 268 ± 92.8 L/h | Cmax [3]: 102 ± 22.0 ng/mL | CLss/F [4]: 276 (154-395) L/h | Cmax [4]: 100 (73.3-131) ng/mL | Amount recovered (50 mg qd, Mean ± SD): 0.233 ± 0.0880 mg | Amount recovered (%) (50 mg qd, Mean ± SD): 0.467 ± 0.176% | AUC0-24 [5]: 315 ± 91.5 ng·h/mL | AUClast [5]: 311 ± 89.1 ng·h/mL | Cmax [5]: 187 ± 85.0 ng/mL | MRT [5]: 167 ± 76.8 min | AUC0-24 [6]: 338 (168-419) h*ng/mL | AUClast [6]: 333 (168-416) h*ng/mL | Cmax [6]: 189 (75.6-285) ng/mL | AUC0-24 [7]: 485 ± 179 ng·h/mL | AUClast [7]: 488 ± 172 ng·h/mL | CLss/F [7]: 198 ± 88.7 L/h | Cmax [7]: 233 ± 84.1 ng/mL | CLss/F (100 mg qd, Day 12, blood, Median (Min-Max)): 166 (129-298) L/h | Amount recovered (100 mg qd, Mean ± SD): 0.648 ± 0.330 mg | Amount recovered (%) (100 mg qd, Mean ± SD): 0.648 ± 0.330% | AUC0-24 [8]: 977 ± 378 ng·h/mL | AUClast [8]: 973 ± 379 ng·h/mL | Cmax [8]: 518 ± 89.1 ng/mL | MRT [8]: 181 ± 66.6 min | Cmax (400 mg qd, Day 1, blood, Median (Min-Max)): 513 (383-622) ng/mL | AUC0-24 [9]: 1280 ± 577 ng·h/mL | AUClast [9]: 1300 ± 602 ng·h/mL | CLss/F [9]: 366 ± 150 L/h | Cmax [9]: 551 ± 263 ng/mL | CLss/F (400 mg qd, Day 12, blood, Median (Min-Max)): 351 (177-591) L/h | Amount recovered (400 mg qd, Mean ± SD): 1.25 ± 0.647 mg | Amount recovered (%) (400 mg qd, Mean ± SD): 0.313 ± 0.162% | AUC0-24 [10]: 1080 ± 377 ng·h/mL | AUClast [10]: 1080 ± 377 ng·h/mL | Cmax [10]: 550 ± 87.6 ng/mL | MRT [10]: 188 ± 34.8 min | Cmax (600 mg qd, Day 1, blood, Median (Min-Max)): 545 (461-691) ng/mL | AUC0-24 [11]: 1230 ± 356 ng·h/mL | AUClast [11]: 1240 ± 341 ng·h/mL | CLss/F [11]: 521 ± 131 L/h | Cmax [11]: 563 ± 229 ng/mL | CLss/F (600 mg qd, Day 12, blood, Median (Min-Max)): 569 (345-661) L/h | Amount recovered (600 mg qd, Mean ± SD): 1.54 ± 0.915 mg | Amount recovered (%) (600 mg qd, Mean ± SD): 0.257 ± 0.153% | drug accumulation ratio (Racc) (high dose): 1.2 | drug accumulation ratio (Racc) (low dose): 5 | CL renal (human, oral, 10 mg, 10 mg qd, Mean ± SD): 45.3 ± 18 mL/min | CL renal (human, oral, 10 mg, 10 mg qd, Median (Min-Max)): 41.6 mL/min | CL renal (human, oral, 25 mg, 25 mg qd, Mean ± SD): 16.8 ± 6.81 mL/min | CL renal (human, oral, 25 mg, 25 mg qd, Median (Min-Max)): 18.9 mL/min | CL renal (human, oral, 50 mg, 50 mg qd, Mean ± SD): 20.4 ± 2.4 mL/min | CL renal (human, oral, 50 mg, 50 mg qd, Median (Min-Max)): 20.5 mL/min | CL renal (human, oral, 100 mg, 100 mg qd, Mean ± SD): 21.6 ± 5.41 mL/min | CL renal (human, oral, 100 mg, 100 mg qd, Median (Min-Max)): 21.1 mL/min | CL renal (human, oral, 400 mg, 400 mg qd, Mean ± SD): 16.9 ± 7.13 mL/min | CL renal (human, oral, 400 mg, 400 mg qd, Median (Min-Max)): 14.5 mL/min | CL renal (human, oral, 600 mg, 600 mg qd, Mean ± SD): 20 ± 8.25 mL/min | CL renal (human, oral, 600 mg, 600 mg qd, Median (Min-Max)): 18.1 mL/min | AUC(0-t) (human, blood, oral, 10 mg, 10 mg qd, Day 1, blood, Mean ± SD, read-out: AUC0-24): 4.94 ± 1.35 ng·h/mL | AUC(0-t) (human, blood, oral, 10 mg, 10 mg qd, Day 1, blood, Mean ± SD, read-out: AUClast): 4.17 ± 1.38 ng·h/mL | MRT (human, blood, oral, 10 mg, 10 mg qd, Day 1, blood, Mean ± SD, read-out: MRT): 45.7 ± 9.06 min | Tmax (human, blood, oral, 10 mg, 10 mg qd, Day 1, blood, Median (Min-Max)): 31 min | AUC(0-t) (human, blood, oral, 10 mg, 10 mg qd, Day 1, blood, Median (Min-Max), read-out: AUC0-24): 4.94 ng·h/mL
Structure (SMILES): C=CC(=O)N(C)CCOc1c(N)ncnc1-c1cc(F)cc(NC(=O)c2ccc(C3CC3)cc2F)c1C [Compound of Formula (I), N-(3-(6-Amino-5-(2-(N-methylacrylamido)ethoxy)pyrimidin-4-yl)-5-fluoro-2-methylphenyl)-4-cyclopropyl-2-fluorobenzamide]
